Experimental findings from ChEMBL document CHEMBL1150467, “The identification of a novel renin inhibitor of equivalent efficacy following oral or intravenous administration” (Bioorg Med Chem Lett, 1994) are described below.

Molecules are shown by their SMILES.

The target of this test is T1, Renin (Homo sapiens, UniProt P00797).
T1 sequence (P00797 whole entry): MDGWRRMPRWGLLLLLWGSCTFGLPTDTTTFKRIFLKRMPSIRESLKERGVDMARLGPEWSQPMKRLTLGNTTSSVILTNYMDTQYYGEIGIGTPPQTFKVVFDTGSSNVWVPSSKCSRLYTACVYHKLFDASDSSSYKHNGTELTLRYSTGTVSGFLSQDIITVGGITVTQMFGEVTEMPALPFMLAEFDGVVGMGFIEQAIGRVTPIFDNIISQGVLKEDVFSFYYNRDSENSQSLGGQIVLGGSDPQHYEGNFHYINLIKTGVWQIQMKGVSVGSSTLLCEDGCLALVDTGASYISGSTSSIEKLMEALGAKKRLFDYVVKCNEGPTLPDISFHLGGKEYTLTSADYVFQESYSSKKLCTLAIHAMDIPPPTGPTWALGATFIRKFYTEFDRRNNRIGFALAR
As to the kind of experiment: […]. It is filed as cell-free, Plasma.
As for `CC(C)C[C@H](NC(=O)[C@H](Cc1ccccc1)NC(=O)CC1CS(=O)(=O)c2ccccc21)C(=O)N[C@@H](CC1CCCCC1)[C@@H](O)CC(=O)NCCn1ccnc1` (some centres not stated), inhibition was half-maximal at 41 nM (IC50). As to `CC(C)CCNC(=O)C[C@H](O)[C@H](CC1CCCCC1)NC(=O)[C@H](CC(C)C)NC(=O)[C@H](Cc1ccccc1)NC(=O)CC1CS(=O)(=O)c2ccccc21` (some centres not stated), half-maximal inhibition (IC50) required 10 nM. For `CC(C)C[C@H](NC(=O)[C@H](Cc1ccccc1)NC(=O)CCCN1C(=O)CSc2ccncc21)C(=O)N[C@@H](CC1CCCCC1)[C@@H](O)CC(=O)NCCCn1ccnc1` the value was 14 nM.

In the case of `CC(C)C[C@H](NC(=O)[C@H](Cc1ccccc1)NC(=O)CC1CS(=O)(=O)c2ccccc21)C(=O)N[C@@H](CC1CCCCC1)[C@@H](O)CC(=O)NCCCc1cccnc1` (some centres not stated), the midpoint of inhibition, the IC50, lay at 34 nM. For `CC(C)C[C@H](NC(=O)[C@H](Cc1ccccc1)NC(=O)CCN1C(=O)CSc2cnccc21)C(=O)N[C@@H](CC1CCCCC1)[C@@H](O)CC(=O)NCCCn1ccnc1` the value was 4 nM; for `CC(C)C[C@H](NC(=O)[C@H](Cc1ccccc1)NC(=O)CCN1C(=O)CS(=O)(=O)c2ccncc21)C(=O)N[C@@H](CC1CCCCC1)[C@@H](O)CC(=O)NCCCn1ccnc1`, 8 nM; for `CC(C)C[C@H](NC(=O)[C@H](Cc1ccccc1)NC(=O)CCN1C(=O)COc2ccncc21)C(=O)N[C@@H](CC1CCCCC1)[C@@H](O)CC(=O)NCCCn1ccnc1`, 20 nM. For the compound `CC(C)C[C@H](NC(=O)[C@H](Cc1ccccc1)NC(=O)CC1CS(=O)(=O)c2ccccc21)C(=O)N[C@@H](CC1CCCCC1)[C@@H](O)CC(=O)NCCCN(C)C` (some centres not stated), it took 95 nM to reach half-maximal inhibition (IC50). Compared with the last compound, the IC50 is about 4.8-fold higher. For `CC(C)C[C@H](NC(=O)[C@H](Cc1ccccc1)NC(=O)CC1CS(=O)(=O)c2ccccc21)C(=O)N[C@@H](CC1CCCCC1)[C@@H](O)CC(=O)NCCCn1ccnc1` (some centres not stated) the value was 12 nM; for `CC(C)C[C@H](NC(=O)[C@H](Cc1ccccc1)NC(=O)CC1CS(=O)(=O)c2ccccc21)C(=O)N[C@@H](CC1CCCCC1)[C@@H](O)CC(=O)NCCN1CCOCC1` (some centres not stated), 170 nM; for `CC(C)C[C@H](NC(=O)[C@H](Cc1ccccc1)NC(=O)CC1CS(=O)(=O)c2ccccc21)C(=O)N[C@@H](CC1CCCCC1)[C@@H](O)CC(=O)NCCCC(=O)O` (some centres not stated), 55 nM. For `CC(C)C[C@H](NC(=O)[C@H](Cc1ccccc1)NC(=O)CN1C(=O)CSc2ccncc21)C(=O)N[C@@H](CC1CCCCC1)[C@@H](O)CC(=O)NCCCn1ccnc1` the value was 38 nM.
